The target in this assay is TdT (Bos taurus, UniProt P06526). The assay is described as follows: Screen of nucleotides and nucleotide analogues as substrates for TdT-based DNA synthesis. The class given is biochemical. The conditions noted are these: for efficiency as substrates of TdT compared to natural counterparts: analogues more positively charged than natural counterparts; for behavior with respect to TdT-based DNA synthesis (extension efficiency, rate, and extension length distribution): natural nucleotides compared with each other. The text has this:
Nucleotide analogues may be used as substrates for enzymatic synthesis using TdT. In the general scheme of the presently disclosed methods, the distribution of extension length by TdT is important to ensure efficient and reliable encoding of information into DNA.
These analogues include, but are not limited to, 5-Aminoallyl-dUTP and 5-Propargylamino-dUTP.

These results are taken from patent publication US10745814B2, “Enzymatic nucleic acid synthesis” (President and Fellows of Harvard College, priority 2016, dated 2020).

TdT, sequence (P06526 whole entry): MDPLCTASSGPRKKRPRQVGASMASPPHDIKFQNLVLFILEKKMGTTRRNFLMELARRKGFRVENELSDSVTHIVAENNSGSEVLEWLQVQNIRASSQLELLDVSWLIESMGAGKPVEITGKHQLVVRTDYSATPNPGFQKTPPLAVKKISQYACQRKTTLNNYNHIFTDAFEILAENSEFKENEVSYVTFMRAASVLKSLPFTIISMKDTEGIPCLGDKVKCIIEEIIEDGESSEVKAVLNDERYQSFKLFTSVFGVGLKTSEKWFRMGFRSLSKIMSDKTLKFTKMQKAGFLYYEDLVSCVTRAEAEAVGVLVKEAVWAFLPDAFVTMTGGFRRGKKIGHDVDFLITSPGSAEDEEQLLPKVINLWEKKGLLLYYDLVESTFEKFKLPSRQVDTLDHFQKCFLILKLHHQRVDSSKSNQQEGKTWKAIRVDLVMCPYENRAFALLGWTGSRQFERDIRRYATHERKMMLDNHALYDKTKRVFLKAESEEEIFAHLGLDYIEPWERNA

Turning to `NC/C=C/c1cn(C2CC(O)C(COP(=O)(O)OP(=O)(O)OP(=O)(O)O)O2)c(=O)[nH]c1=O` (centres unmarked) [5-Aminoallyl-dUTP], the “efficiency as substrates of TdT compared to natural counterparts” value is on record as “far more efficient substrates of TdT”. As to `Nc1ccn([C@H]2C[C@H](O)[C@@H](COP(=O)(O)OP(=O)(O)OP(=O)(O)O)O2)c(=O)n1` [dCTP], the “behavior with respect to TdT-based DNA synthesis (extension efficiency, rate, and extension length distribution)” value (“behavior” for short) is “most optimal behavior”.

On to `Nc1ncnc2c1ncn2[C@H]1C[C@H](O)[C@@H](COP(=O)(O)OP(=O)(O)OP(=O)(O)O)O1` [dATP], for which the “behavior” value was “poorest behavior”.

For the molecule `NCC#Cc1cn(C2CC(O)C(COP(=O)(O)OP(=O)(O)OP(=O)(O)O)O2)c(=O)[nH]c1=O` (centres unmarked) [5-Propargylamino-dUTP], the “efficiency as substrates of TdT compared to natural counterparts” value is recorded as “far more efficient substrates of TdT”.

With `Nc1nc2c(ncn2[C@H]2C[C@H](O)[C@@H](COP(=O)(O)OP(=O)(O)OP(=O)(O)O)O2)c(=O)[nH]1` [dGTP], the “behavior” value is on record as “poorest behavior”.
